These results are taken from patent publication US20240254119A1 (THIRD HARMONIC BIO, INC., priority 2022, published 2024).

A short description of this data set: Caco-2 permeability assay. The data set is classed as in vitro ADME. To be noted: human. The protocol:
Exemplary compounds were tested for cell permeability in Caco-2, MDCKII-MDR1 and MDCKII-BCRP cell lines with efflux transporter engagement inferred from the efflux ratios determined. Procedures and results are described below. […] This feature of certain compounds is in part due to efflux transporter engagement. See, for instance, exemplary such compounds included in data tables below.
The transport buffer in the study was HBSS with 10.0 mM HEPES at pH 7.40±0.05. Test compound was tested at 2.00 μM bi-directionally in duplicate. Digoxin was tested at 10.0 μM bi-directionally in duplicate, while nadolol and metoprolol were tested at 2.00 μM in A to B direction in duplicate. Final DMSO concentration was adjusted to less than 1%. The plate was incubated for 2 hours in CO2 incubator at 37±1° C., with 5% CO2 at saturated humidity without shaking. And all samples after mixed with acetonitrile containing internal standard were centrifuged at 3200×g for 10 min. For nadolol and metoprolol, 200 μL supernatant solution was diluted with 600 μL ultra-pure water for LC-MS/MS analysis. For digoxin and test compounds, 200 μL supernatant solution was diluted with 200 μL ultra-pure water for LC-MS/MS analysis. Concentrations of test and control compounds in starting solution, donor solution, and receiver solution were quantified by LC-MS/MS methodologies, using peak area ratio of analyte/internal standard.
After transport assay, lucifer yellow rejection assay was applied to determine the Caco-2 cell monolayer integrity.
[…] And permeation of lucifer yellow through the monolayer was measured to evaluate the cellular integrity.
The apparent permeability coefficient Papp (cm/s) was calculated using the equation: Papp=(dCr/dt)×Vr/(A×C0), where dCr/dt is the cumulative concentration of compound in the receiver chamber as a function of time (μM/s); Vr is the solution volume in the receiver chamber (0.075 mL on the apical side, 0.25 mL on the basolateral side); A is the surface area for the transport, i.e. 0.0804 cm^2 for the area of the monolayer; C0 is the initial concentration in the donor chamber (μM).
The efflux ratio was calculated using the equation: Efflux Ratio=Papp (BA)/Papp(AB).
Percent recovery was calculated using the equation: % Solution Recovery=100×[(Vr×Cr)+(Vd×Cd)]/(Vd×C0), where Vd is the volume in the donor chambers (0.075 mL on the apical side, 0.25 mL on the basolateral side); Cd and Cr are the final concentrations of transport compound in donor and receiver chambers, respectively.
(In general: Caco-2 cells form a polarised layer with tight junctions and transporters.)

As to `Cc1ccc(-c2noc([C@H]3C[C@@H]3F)n2)cc1NC(=O)c1cnc2cc(COCC(C)(C)O)ccn12` [Compound I-71, N-[5-[5-[(1R,2S)-2-fluorocyclopropyl]-1,2,4-oxadiazol-3-yl]-2-methyl-phenyl]-7-[(2-hydroxy-2-methyl-propoxy)methyl]imidazo[1,2-a]pyridine-3-carboxamide], the efflux ratio (as a rule, the permeability from basolateral to apical divided by that in the opposite direction, in the common usage) at 2 h, 2 μM (Caco-2, pH 7.4) was 6.78. Also, under “pH 7.4, Caco-2, apical to basolateral”, the Papp A→B (in general, the apparent permeability from the apical to the basolateral side of a cell layer) at 2 h, 2 μM came out at 6.65 ×10⁻⁶ cm/s.
